Test results reported in paper PMC6054150, “Cytokinin perception in potato: new features of canonical players” (Journal of Experimental Botany, 2018).
Several values for one entry are separate records, joined by “and”; a condition that tells them apart may be missing. Equal entries are not always repeated. Where two headings read alike, the source gives them in different places. One block for each compound: values may come before it.

How the values were obtained:
[1] = biological target: StHKs (StHK2a, StHK3aSM, StHK4a, StHK4b); experiment: Competitive binding, summary over the analysed StHKs; parameters: species or system Solanum tuberosum; settings: span over StHK2a, read-out: apparent Kd, all analysed StHKs
Procedure: (§1) Ligand binding studies were performed in PBS as described previously ([Romanov et al., 2005]; [Lomin et al., 2015]). Studies of pH influence on hormone binding were performed in 50 mM MES–KOH (pH 5–7) or Tris–HCl (pH 7–9) buffers with 50 mM KCl. Kd for [^3H]trans-zeatin (tZ) binding to different receptors was determined in saturation assays followed by data analysis in Scatchard plots.
To analyse ligand-binding properties of the receptors, a recently developed plant membrane assay system ([Lomin et al., 2015]) was used. Predicted potato CK receptor genes were cloned into pB7FWG2 vectors for transient expression in tobacco leaves. […] Instead of full-length receptor, we clond a genomic sequence of the StHK3a sensory module flanked by transmembrane domains. From the transiently transformed tobacco leaves, a microsomal fraction enriched with individual potato receptors was obtained. The binding assays were conducted using this fraction and tritium-labeled CK. […]
Different CKs are usually present in the plant: trans- and cis-zeatins (tZ and cZ), isopentenyladenine (iP), and dihydrozeatin (DZ). […] Based on the obtained competition curves (Supplementary Fig. S8), the apparent Kd values were determined for each ligand as described ([Lomin and Romanov, 2008]). We analysed the interaction of StHKs with six CKs, including five natural ones as well as the synthetic urea-type CK thidiazuron (Table 3).

StHK4b = StHK4b (Solanum tuberosum, UniProt A0A2U9K786); experiment: Plant membrane (tobacco microsome) hormone binding assay with [3H]trans-zeatin, StHK4b
Source text: (§2) The transient transformation of tobacco (Nicotiana benthamiana Domin) leaves was accomplished according to [Sparkes et al. (2006)]. Eight-week-old tobacco plants were infiltrated with a mixture of Agrobacterium tumefaciens carrying CK receptor genes fused to green fluorescent protein (GFP) and the A. tumefaciens helper strain p19 ([Voinnet et al., 2003]), and the expression of receptor genes was checked after 5–6 d with a fluorescence microscope, Axio Imager Z2 (Carl Zeiss Microscopy GmbH), before leaves were processed further for microsome isolation.
(§3) All manipulations were done at 4 °C. Tobacco leaves 6 d after infiltration were homogenized in buffer (3 ml per 1 g of fresh weight) containing 100 mM Tris–HCl (pH 8.0), 2 mM Na2-EDTA, 50 mM KCl, 1 mM DTT, and 1 mM phenylmethylsulfonyl fluoride. The homogenate was filtered through Miracloth (Calbiochem, San Diego, CA, USA), and the filtrate was centrifuged for 5 min at 5000 g. Then supernatant was centrifuged for 40 min at 15000 g. The microsome pellet was resuspended in 50 mM KCl–10% glycerol and the microsome suspension was stored at −70 °C.
as §1
(§4) To analyse ligand-binding properties of the receptors, a recently developed plant membrane assay system ([Lomin et al., 2015]) was used. Predicted potato CK receptor genes were cloned into pB7FWG2 vectors for transient expression in tobacco leaves. […] Instead of full-length receptor, we clond a genomic sequence of the StHK3a sensory module flanked by transmembrane domains. From the transiently transformed tobacco leaves, a microsomal fraction enriched with individual potato receptors was obtained. The binding assays were conducted using this fraction and tritium-labeled CK. In aggregate, we tested four putative receptors belonging to all three clades: StHK2a, StHK3a (sensory module, further designated as StHK3aSM), StHK4a, and StHK4b.
(§5) First, we determined the pH-dependence of hormone binding to these receptors within the pH range of 5–9 (Fig. 5).
(§6) The interaction of a hormone with a receptor is characterized by the equilibrium dissociation constant (Kd) of the ligand–receptor complex. Kd values were determined by the dose-dependent binding of labeled trans-zeatin to StHKs, and the results were processed by the Scatchard method (Supplementary Fig. S7; [Lomin and Romanov, 2008]).
(§7) Different CKs are usually present in the plant: trans- and cis-zeatins (tZ and cZ), isopentenyladenine (iP), and dihydrozeatin (DZ). In addition to natural CKs, there are many synthetic ones. […] We studied the ligand specificity of putative receptors in competitive experiments where binding of labeled CK was carried out in the presence of various concentrations of certain unlabeled ligands. Based on the obtained competition curves (Supplementary Fig. S8), the apparent Kd values were determined for each ligand as described ([Lomin and Romanov, 2008]). We analysed the interaction of StHKs with six CKs, including five natural ones as well as the synthetic urea-type CK thidiazuron (Table 3).

StHK2a = StHK2a (Solanum tuberosum, UniProt A0A2P1D005); experiment: Plant membrane (tobacco microsome) hormone binding assay with [3H]trans-zeatin, StHK2a
Source text: as §2, §3, §1, §4, §5, §6, §7

StHK4a = StHK4a (Solanum tuberosum, UniProt A0A2U9K790); experiment: Plant membrane (tobacco microsome) hormone binding assay with [3H]trans-zeatin, StHK4a
Source text: as §2, §3, §1, §4, §5, §6, §7

StHK3aSM = StHK3aSM (Solanum tuberosum, UniProt A0A2U9K793); experiment: Plant membrane (tobacco microsome) hormone binding assay with [3H]trans-zeatin, StHK3a sensory module
Source text: as §2, §3, §1, §4, §5, §6, §7

StHK4 expression = experiment: qRT-PCR of CK receptor gene expression after BA treatment of potato plants; type: in vivo, Solanum tuberosum; settings: leaves; 1.5% sucrose; 1 μM BA, 1 h; on average
Procedure: (§8) Potato cv. Désirée plants were cultivated under standard in vitro conditions at a long (16 h) day for 5–6 weeks on liquid MS medium containing 1.5% or 5% sucrose. For hormone treatment, the medium was replaced with the same one supplemented with N^6-benzyladenine (BA, 1 μM). Tubes were inverted several times to assure uniform plant wetting and then incubated for 1 h under standard conditions. Finally, plant organs (leaves, stems, roots, tubers) were isolated and immediately frozen in liquid nitrogen. Control plants were treated in the same way but without hormone. Total RNA was isolated by the Trizol method ([Brenner et al., 2005]), and served as the template for cDNA synthesis by reverse transcription (Invitrogen). All RNA samples were treated with RNase-free DNase I. The resulting cDNA was checked for genomic DNA contamination by PCR with primers differentiating cDNA and genomic DNA. The band derived from genomic DNA was absent in the separating gel. Expression of genes encoding predicted proteins of the CK signaling system was determined by qRT-PCR. Potato housekeeping genes StEF1α (elongation factor 1-α, AB061263) and StCYC (cyclophilin, AF126551) were used as reference genes ([Nicot et al., 2005]). […]
At 1.5% sucrose, the up-regulation (on average, 2.5-fold) of StHK4 expression was regularly recorded, but only in leaves (Fig. 8). […]

StRR-A genes = experiment: qRT-PCR of type A response regulator gene expression after BA treatment of potato plants; type: in vivo, Solanum tuberosum; settings: 1 μM BA, 1 h; 1.5% sucrose
Procedure: as §8
To validate the results of CK treatment experiments, the effect of CK administration on the transcript level of the genes of type A response regulator (RR-A) genes was analysed. […]

[2] = competition with labeled trans-zeatin (tZ value from saturation/Scatchard), mean ± SE, read-out: Apparent Kd StHK4b
[3] = competition with labeled trans-zeatin (tZ value from saturation/Scatchard); mean ± SE; read-out: Apparent Kd StHK2a
[4] = competition with labeled trans-zeatin (tZ value from saturation/Scatchard), mean ± SE, read-out: Apparent Kd StHK4a
[5] = sensory module, competition with labeled trans-zeatin (tZ value from saturation/Scatchard), mean ± SE, read-out: Apparent Kd StHK3a SM

StHK4b, sequence (A0A2U9K786 entry or part of it): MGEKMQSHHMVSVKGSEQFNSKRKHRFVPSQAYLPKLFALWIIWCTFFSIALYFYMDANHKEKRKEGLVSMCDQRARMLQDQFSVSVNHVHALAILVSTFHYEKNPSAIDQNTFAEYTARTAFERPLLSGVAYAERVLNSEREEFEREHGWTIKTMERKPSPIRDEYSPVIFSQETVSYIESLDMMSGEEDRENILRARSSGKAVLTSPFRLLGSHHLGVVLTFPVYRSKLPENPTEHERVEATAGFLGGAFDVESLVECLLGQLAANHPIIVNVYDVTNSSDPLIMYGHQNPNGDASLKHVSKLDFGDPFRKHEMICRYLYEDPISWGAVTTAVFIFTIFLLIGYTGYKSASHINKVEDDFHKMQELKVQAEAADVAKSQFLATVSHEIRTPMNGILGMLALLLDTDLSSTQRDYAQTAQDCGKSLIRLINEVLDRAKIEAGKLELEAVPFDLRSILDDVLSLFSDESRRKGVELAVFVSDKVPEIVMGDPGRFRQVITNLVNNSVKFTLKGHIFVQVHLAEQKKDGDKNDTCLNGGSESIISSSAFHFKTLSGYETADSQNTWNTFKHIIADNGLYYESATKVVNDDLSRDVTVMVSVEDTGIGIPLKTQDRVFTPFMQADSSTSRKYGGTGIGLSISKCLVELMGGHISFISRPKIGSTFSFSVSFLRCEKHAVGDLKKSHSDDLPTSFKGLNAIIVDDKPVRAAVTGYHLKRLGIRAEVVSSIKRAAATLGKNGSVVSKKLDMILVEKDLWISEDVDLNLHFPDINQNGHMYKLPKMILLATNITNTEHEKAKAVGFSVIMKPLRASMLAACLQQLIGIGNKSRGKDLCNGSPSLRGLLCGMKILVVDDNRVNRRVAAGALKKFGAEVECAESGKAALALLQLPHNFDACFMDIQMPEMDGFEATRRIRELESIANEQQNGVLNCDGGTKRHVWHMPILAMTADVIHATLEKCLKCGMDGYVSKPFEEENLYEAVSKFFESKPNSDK
StHK2a, sequence (A0A2P1D005 entry or part of it): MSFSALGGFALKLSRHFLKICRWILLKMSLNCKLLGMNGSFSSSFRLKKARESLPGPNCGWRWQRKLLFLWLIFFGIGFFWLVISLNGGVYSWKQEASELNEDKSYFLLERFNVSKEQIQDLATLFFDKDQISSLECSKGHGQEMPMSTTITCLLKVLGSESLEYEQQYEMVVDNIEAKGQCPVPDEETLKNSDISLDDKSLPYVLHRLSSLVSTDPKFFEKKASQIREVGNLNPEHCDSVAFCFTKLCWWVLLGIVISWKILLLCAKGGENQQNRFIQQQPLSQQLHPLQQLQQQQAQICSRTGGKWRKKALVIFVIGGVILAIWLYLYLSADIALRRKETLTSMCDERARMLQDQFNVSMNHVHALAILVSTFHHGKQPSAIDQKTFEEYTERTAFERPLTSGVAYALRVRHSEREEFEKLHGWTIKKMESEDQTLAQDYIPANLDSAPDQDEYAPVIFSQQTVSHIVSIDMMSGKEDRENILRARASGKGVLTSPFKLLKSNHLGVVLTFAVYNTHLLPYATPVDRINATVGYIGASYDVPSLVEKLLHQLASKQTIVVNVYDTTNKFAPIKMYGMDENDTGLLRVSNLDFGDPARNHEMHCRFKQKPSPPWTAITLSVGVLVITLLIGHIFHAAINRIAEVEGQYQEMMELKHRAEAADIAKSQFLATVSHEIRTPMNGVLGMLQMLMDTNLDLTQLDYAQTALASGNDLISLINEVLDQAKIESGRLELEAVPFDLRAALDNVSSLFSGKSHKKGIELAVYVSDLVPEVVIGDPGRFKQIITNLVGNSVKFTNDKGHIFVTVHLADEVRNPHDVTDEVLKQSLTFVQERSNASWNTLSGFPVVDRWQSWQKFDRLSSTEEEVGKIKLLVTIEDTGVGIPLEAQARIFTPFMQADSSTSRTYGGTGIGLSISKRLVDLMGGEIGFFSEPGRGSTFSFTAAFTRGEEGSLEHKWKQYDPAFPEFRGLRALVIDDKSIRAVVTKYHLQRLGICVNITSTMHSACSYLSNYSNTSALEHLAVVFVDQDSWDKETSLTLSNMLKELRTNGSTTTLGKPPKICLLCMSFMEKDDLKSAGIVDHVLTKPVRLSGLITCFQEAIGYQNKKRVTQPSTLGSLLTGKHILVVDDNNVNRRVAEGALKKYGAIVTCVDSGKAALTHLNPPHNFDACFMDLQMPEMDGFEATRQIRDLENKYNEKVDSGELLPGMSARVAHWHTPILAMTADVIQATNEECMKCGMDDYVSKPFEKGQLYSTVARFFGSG
StHK3aSM, sequence (A0A2U9K793 entry or part of it): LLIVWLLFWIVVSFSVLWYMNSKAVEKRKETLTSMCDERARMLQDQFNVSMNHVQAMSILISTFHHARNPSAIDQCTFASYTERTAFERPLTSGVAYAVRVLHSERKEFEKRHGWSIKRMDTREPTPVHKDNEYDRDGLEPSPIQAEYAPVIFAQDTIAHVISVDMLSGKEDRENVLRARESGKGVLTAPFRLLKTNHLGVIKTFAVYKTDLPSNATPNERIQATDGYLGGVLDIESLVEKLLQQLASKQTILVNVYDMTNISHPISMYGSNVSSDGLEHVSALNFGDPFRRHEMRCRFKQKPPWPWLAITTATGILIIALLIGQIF
StHK4a, sequence (A0A2U9K790 entry or part of it): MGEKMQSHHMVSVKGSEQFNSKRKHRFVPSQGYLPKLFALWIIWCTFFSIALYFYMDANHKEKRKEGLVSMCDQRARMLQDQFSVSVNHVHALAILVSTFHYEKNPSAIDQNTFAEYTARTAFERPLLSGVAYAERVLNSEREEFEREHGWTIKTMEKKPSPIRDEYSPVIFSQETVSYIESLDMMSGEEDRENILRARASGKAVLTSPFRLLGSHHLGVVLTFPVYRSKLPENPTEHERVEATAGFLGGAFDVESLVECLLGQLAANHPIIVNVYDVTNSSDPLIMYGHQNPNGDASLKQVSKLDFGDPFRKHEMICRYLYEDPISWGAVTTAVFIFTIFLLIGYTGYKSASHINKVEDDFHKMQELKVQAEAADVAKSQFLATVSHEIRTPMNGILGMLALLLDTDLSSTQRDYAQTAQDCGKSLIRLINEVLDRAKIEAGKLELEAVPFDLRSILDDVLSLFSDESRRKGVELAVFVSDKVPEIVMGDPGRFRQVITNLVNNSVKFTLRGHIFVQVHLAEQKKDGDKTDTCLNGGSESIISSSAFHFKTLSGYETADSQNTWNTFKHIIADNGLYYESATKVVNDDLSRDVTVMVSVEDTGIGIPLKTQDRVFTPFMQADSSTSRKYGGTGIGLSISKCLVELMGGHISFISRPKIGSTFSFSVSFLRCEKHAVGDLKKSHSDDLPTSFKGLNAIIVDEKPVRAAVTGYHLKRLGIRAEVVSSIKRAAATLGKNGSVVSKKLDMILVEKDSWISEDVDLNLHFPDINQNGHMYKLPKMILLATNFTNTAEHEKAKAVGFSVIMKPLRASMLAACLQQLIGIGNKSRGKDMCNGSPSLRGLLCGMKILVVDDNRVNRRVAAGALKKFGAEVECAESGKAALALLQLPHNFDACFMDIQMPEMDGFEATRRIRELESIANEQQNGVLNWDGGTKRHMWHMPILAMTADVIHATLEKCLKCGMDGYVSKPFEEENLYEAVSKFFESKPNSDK

SMILES: c1ccc(CNc2ncnc3nc[nH]c23)cc1 [N ^6-Benzyladenine]
up-regulation of StHK4 expression (BA/control) (StHK4 expression): 2.5 fold
Kd (StHK4b): 63 ± 12 nM
expression of StRR-A genes (StRR-A genes): rapid and reliable increase
Kd (StHK2a; read-out: Apparent Kd StHK2a; competition with labeled trans-zeatin (tZ value from saturation/Scatchard); mean ± SE): 45 ± 3.5 nM
Kd (StHK4a): 55 ± 7 nM
Kd (StHK3aSM; Apparent Kd StHK3a SM, sensory module, competition with labeled trans-zeatin (tZ value from saturation/Scatchard), mean ± SE): 49 ± 7 nM

SMILES: O=C(Nc1ccccc1)Nc1cnns1 [Thidiazuron]
Kd (StHK4b; [2]): 17.2 ± 2.5 nM
Kd (StHK2a; [3]): 1.4 ± 0.04 nM
Kd (StHK4a; [4]): 12.6 ± 1.9 nM
Kd (StHK3aSM; [5]): 2.3 ± 0.5 nM

SMILES: C/C(=C\CNc1ncnc2[nH]cnc12)CO [trans-Zeatin]
Kd (StHK4b; [2]): 3 ± 0.3 nM
decrease of ligand binding at pH 5, StHK4b (StHK4b; pH 5): about 3 fold
pH of maximal trans-zeatin binding, StHK2a (StHK2a): 7.5
reduction of binding at pH 5 (factor), StHK2a (StHK2a): 2
Kd (StHK2a; [3]): 2.6 ± 0.3 nM
Kd (StHK4a; [4]): 2.5 ± 0.7 nM
decrease of ligand binding at pH 5, StHK4a (StHK4a; pH 5): about 3 fold
pH of maximal trans-zeatin binding, StHK3aSM (StHK3aSM): 7
reduction of binding at pH 5 (factor), StHK3aSM (StHK3aSM): 5
Kd (StHK3aSM; [5]): 4.7 ± 0.6 nM

Other lines, results leading:

Kd [1]: > 100 nM
Kd (StHK4b; read-out: Apparent Kd StHK4b): 129 ± 19 nM
Kd (StHK2a; read-out: Apparent Kd StHK2a): 102 ± 7 nM
Kd (StHK4a; read-out: Apparent Kd StHK4a): 106 ± 22 nM
Kd (StHK3aSM; read-out: Apparent Kd StHK3a SM): 110 ± 39 nM
SMILES: C/C(=C/CNc1ncnc2nc[nH]c12)CO [cis-Zeatin]

Kd (StHK4b; [2]): 2.5 ± 0.3 nM
Kd (StHK2a; [3]): 2.4 ± 0.2 nM
Kd (StHK4a; [4]): 2.1 ± 0.2 nM
Kd (StHK3aSM; [5]): 5.2 ± 0.8 nM
SMILES: CC(C)=CCNc1ncnc2nc[nH]c12 [N ^6-Isopentenyladenine]

Kd (StHK4b; [2]): 227 ± 33 nM
Kd (StHK2a; [3]): 169 ± 18 nM
Kd (StHK4a; [4]): 178 ± 37 nM
Kd (StHK3aSM; [5]): ~21 nM and 21 nM
SMILES: CC(CO)CCNc1ncnc2nc[nH]c12 (stereo not drawn) [Dihydrozeatin]
